Data as given in patent publication US10729710B2, “Catecholamine prodrugs for use in the treatment of Parkinson's disease” (H. Lundbeck A/S, priority 2017, dated 2020).
Where a name gives a salt, the structure may show the parent alone.

Assays:
human D1 receptor = human D1 receptor (Homo sapiens (Human), UniProt P21728); test: Dopamine D1 receptor agonism, HTRF cAMP assay; format: cell-based; settings: HEK-293 cells expressing human D1 receptor, cAMP
Procedure: Dopamine D1 receptor agonism was measured using a HTRF cAMP from CisBio using the protocol developed by HD Biosciences (China). Briefly, the assay is a homogeneous time resolved-fluorescence resonance energy transfer (HTRF) assay that measures production of cAMP by cells in a competitive immunoassay between native cAMP produced by cells and cAMP-labeled with XL-665. A cryptate-labeled anti-cAMP antibody visualizes the tracer. The assay was performed in accordance with instructions from manufacturer.
Test compounds were added to wells of microplates (384 format). HEK-293 cells expressing the human D1 receptor were plated at 1000 cells/well and incubated 30 min at room temperature. cAMP-d2 tracer was added to wells and followed by addition of Anti-cAMP antibody-cryptate preparation and incubated for 1 h at room temperature in dark. HTRF cAMP was measured by excitation of the donor with 337 nm laser (the “TRF light unit”) and subsequent (delay time 100 microseconds) measurement of cryptate and d2 emission at 615 nm and 665 nm over a time window of 200 microseconds with a 2000 microseconds time window between repeats/100 flashes). HRTF measurements were performed on an Envision microplate reader (PerkinElmer). The HTRF signal was calculated as the emission-ratio at 665 nm over 615 nm. The HTRF ratio readout for test compounds was normalized to 0% and 100% stimulation using control wells with DMSO-solvent or 30 uM dopamine. Test compound potency (EC50) was estimated by nonlinear regression using the sigmoidal dose-response (variable slope) using Xlfit 4 (IDBS, Guildford, Surrey, UK, model 205). y=(A+((B−A)/(1+((C/x)^D)))) where y is the normalized HTRF ratio measurement for a given concentration of test compound, x is the concentration of test compound, A is the estimated efficacy at infinite compound dilution, and B is the maximal efficacy. C is the EC50 value and D is the Hill slope coefficient. EC50 estimates were obtained from an independent experiment and the logarithmic average was calculated. Dopamine D2 Receptor Agonism

human D2 receptor = human D2 receptor (Homo sapiens (Human), UniProt P14416); test: Dopamine D2 receptor agonism, calcium mobilization assay; format: cell-based
Sequence of human D2 receptor (P14416 whole entry): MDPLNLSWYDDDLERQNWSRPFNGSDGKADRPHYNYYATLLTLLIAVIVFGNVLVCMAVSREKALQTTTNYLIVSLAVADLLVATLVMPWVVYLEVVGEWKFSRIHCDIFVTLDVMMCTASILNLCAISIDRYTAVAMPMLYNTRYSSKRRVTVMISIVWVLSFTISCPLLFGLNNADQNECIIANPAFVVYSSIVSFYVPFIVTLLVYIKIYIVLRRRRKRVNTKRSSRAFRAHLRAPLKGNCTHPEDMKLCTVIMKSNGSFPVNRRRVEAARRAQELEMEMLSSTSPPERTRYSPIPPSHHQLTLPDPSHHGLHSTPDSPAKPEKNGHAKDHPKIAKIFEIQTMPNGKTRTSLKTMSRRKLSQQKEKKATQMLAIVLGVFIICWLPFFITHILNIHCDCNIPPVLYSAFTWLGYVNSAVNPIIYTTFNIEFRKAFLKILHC
Procedure: Dopamine D2 receptor agonism was measured using a calcium mobilization assay protocol developed by HD Biosciences (China). Briefly, HEK293/G15 cells expressing human D2 receptor were plated at a density of 15000 cells/well in clear-bottomed, Matrigel-coated 384-well plates and grown for 24 hrs at 37° C. in the presence of 5% CO2. The cells were incubated with calcium-sensitive fluorescent dye, Fluo8, for 60-90 minutes at 37° C. in the dark. Test compounds were prepared at 3-fold concentrated solution in 1×HBSS buffer with Ca^2+ and Mg^2+. Calcium Flux signal was immediately recorded after compounds were added from compound plate to cell plate at FLIPR (Molecular Devices). The fluorescence data were normalized to yield responses for no stimulation (buffer) and full stimulation (1 μM of dopamine) of 0% and 100% stimulation, respectively. Test compound potency (EC50) was estimated by nonlinear regression using the sigmoidal dose-response (variable slope) using Xlfit 4 (IDBS, Guildford, Surrey, UK, model 205). y=(A+((B−A)/(1+((C/x)^D)))) where y is the normalized ratio measurement for a given concentration of test compound, x is the concentration of test compound, A is the estimated efficacy at infinite compound dilution, and B is the maximal efficacy. C is the EC50 value and D is the Hill slope coefficient. EC50 estimates were obtained from independent experiment and the logarithmic average was calculated.

human 5-HT2B receptor = human 5-HT2B receptor (Homo sapiens (Human), UniProt P41595); test: 5-HT2B agonist activity assay (IP1 production, HTRF); format: cell-based
Sequence of human 5-HT2B receptor (P41595 whole entry): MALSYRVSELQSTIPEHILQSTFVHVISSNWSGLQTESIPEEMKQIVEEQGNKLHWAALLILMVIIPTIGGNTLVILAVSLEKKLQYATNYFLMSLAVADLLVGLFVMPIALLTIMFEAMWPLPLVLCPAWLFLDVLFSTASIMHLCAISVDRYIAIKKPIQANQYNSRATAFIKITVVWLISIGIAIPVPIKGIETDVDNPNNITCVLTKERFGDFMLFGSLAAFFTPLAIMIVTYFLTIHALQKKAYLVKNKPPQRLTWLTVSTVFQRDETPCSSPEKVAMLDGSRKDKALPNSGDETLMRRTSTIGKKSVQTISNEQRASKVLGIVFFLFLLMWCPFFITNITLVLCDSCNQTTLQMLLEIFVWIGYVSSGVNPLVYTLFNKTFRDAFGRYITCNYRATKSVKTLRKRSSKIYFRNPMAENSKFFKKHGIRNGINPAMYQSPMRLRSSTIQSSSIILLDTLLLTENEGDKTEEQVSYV
Procedure: Evaluation of the agonist activity of compounds (I), (Ia) and (Ib) at the human 5-HT2B receptor was performed by Eurofins/Cerep (France) measuring the compound effects on inositol monophosphate (IP1) production using the HTRF detection method. Briefly, the human 5-HT2B receptor was expressed in transfected CHO cells. The cells were suspended in a buffer containing 10 mM Hepes/NaOH (pH 7.4), 4.2 mM KCl, 146 mM NaCl, 1 mM CaCl2, 0.5 mM MgCl2, 5.5 mM glucose and 50 mM LiCl, then distributed in microplates at a density of 4100 cells/well and incubated for 30 min at 37° C. in the presence of buffer (basal control), test compound or reference agonist. For stimulated control measurement, separate assay wells contained 1 μM 5-HT. Following incubation, the cells were lysed and the fluorescence acceptor (fluorophen D2-labeled IP1) and fluorescence donor (anti-IP1 antibody labeled with europium cryptate) were added. After 60 min at room temperature, the fluorescence transfer was measured at lambda(Ex) 337 nm and lambda(Em) 620 and 665 nm using a microplate reader (Rubystar, BMG). The IP1 concentration was determined by dividing the signal measured at 665 nm by that measured at 620 nm (ratio). The results were expressed as a percent of the control response to 1 μM 5-HT. The standard reference agonist was 5-HT, which was tested in each experiment at several concentrations to generate a concentration-response curve from which its EC50 value is calculated as described above for dopamine functional assays.

[1] = PK experiments in rats: plasma compound (I) after oral dosing of prodrugs; format: in vivo, Han Wistar rats; settings: Wistar rats, FIG. 2, doses equal to 287 μg/kg of compound (I)
Procedure: Plasma was placed on water-ice following collection. Final storage at approximately −70° C.
Mobile phase B: Acetonitrile. […] Flow rate 0.5 mL/min.
The rats had unrestricted access to the diet.
Mobile phase B: Acetonitrile+0.2% formic acid. […] Flow rate 0.3 mL/min.
Han Wistar rats were supplied by Envigo, UK. […] The rats received a standard laboratory diet Teklad 2014C. The rats had unrestricted access to the diet.

hepatocytes from rat = test: Conversion to compound (I) in rat hepatocytes; format: in vitro ADME; settings: 1 μg/mL, 37° C., 0.25-60 minutes, FIG. 7a
Procedure: (§1) The cell concentration at incubation was 1×10^6 viable cells/mL. The incubations were performed in glass tubes at 37° C. with a total incubation volume of 3.5 mL and with duplicate incubations for each test item. The 3.5 mL of hepatocyte suspension was equilibrated for 10 minutes in a water bath set to 37° C. where after the incubations were initiated by adding 3.5 μL of a stock solution of the test item in DMSO (Dimethyl sulfoxide) and gently inverting the tubes. The final solvent concentration in the incubations was 0.1% DMSO. Samples of 600 μL were withdrawn from the incubations at the pre-determined time points of 0.25, 5, 15, 30 and 60 minutes after ensuring homogeneity of hepatocyte suspensions. The withdrawn volume was added to 1 mL Nunc cryo tubes on wet ice containing 60 μL of ice cold ascorbic acid (100 mg/mL) and 30 μL of ice cold 100 mM saccharic acid 1.4-lactone in 0.5 M citric acid. The tubes were mixed and 35 μL of a solution of ice cold 20% formic acid was added. The tubes were mixed thoroughly and stored at −80° C. awaiting analysis. Analysis method and Instrumentation used for analysis of (I) from dosing (Id-ia), (Id-ib), (Id-iia) and (Id-iib), were the one described in Examples 4 and 5 below in the section “Instrumentation used for analysis of compound (I) from dosing of compounds (Ic), (Id-ia), (Id-ib), (Id-iia), (Id-iib), (Id-iab) and (Id-iiab).”
(§2) Analysis method and Instrumentation used for analysis of (I) from dosing (Id-iab) and (Id-iiab) consisted of mixing equal aliquots of the samples and precipitation solution (acetonitrile (MeCN) with 10% methanol (MeOH) and 1% formic acid), followed by centrifugation at 4° C. at 16000 g for 10 minutes. Supernatants were collected and analysed by LC-MS/MS. Mass spectrometer: Waters Acquity—Waters Xevo TQ-MS. Analytical column: Acquity UPLC HSS T3, 100×2.1 mm, 1.8 μm. Mobile phase A: 0.2% formic acid in water. Mobile phase B: 0.2% formic acid in acetonitrile. Gradient run from 95/5% to 60/40 in 5 min. Flow rate 0.3 mL/min. MRM monitoring of (I) in the study samples and in the analytical standards.

hepatocytes from human = test: Conversion to compound (I) in human hepatocytes; format: in vitro ADME; settings: 1 μg/mL, 37° C., 0.25-60 minutes, FIG. 7b
Procedure: as §1, §2

[2] = Conversion to compound (I) in fresh rat blood; format: in vitro ADME; settings: fresh blood 37° C., 1 μg/mL, 0-60 minutes, FIG. 8a
Procedure: (§3) Conversion of (Id-ia), (Id-ib), (Id-iia) and (Id-iib) in human blood (average of 3 donors) and rat blood (average of 45 donors) to (I) was shown in fresh blood at 37° C. spiked with 1 μg/mL of (Id-ia), (Id-ib), (Id-iia) and (Id-iib) separately, (I) was measured at 0, 5, 15, 30 and 60 minutes in isolated plasma. Analysis method and Instrumentation as described in Examples 4 and 5 below in the section “Instrumentation used for analysis of compound (I) from dosing of compounds (Ic), (Id-ia), (Id-ib), (Id-iia), (Id-iib), (Id-iab) and (Id-iiab).”

[3] = Conversion to compound (I) in fresh human blood; format: in vitro ADME; settings: fresh blood 37° C., 1 μg/mL, 0-60 minutes, FIG. 8b
Procedure: as §3

male CD rats = test: Rat locomotor activity (hyperactivity) assay, open field; format: in vivo; settings: for time until locomotor effect is gone: apomorphine: post administration, pramipexole: after appearance of effect, (Id-ia): recording ended at 415-minute time point
Procedure: In total, 206 male CD rats (Charles River, Germany) weighing 200-250 grams (165-190 grams upon arrival) were used in the study. Animals were housed at a standard temperature (22±1° C.) and in a light-controlled environment (lights on from 7 am to […]) with ad libitum access to food and water. The experiment described below was performed in accordance with the standard operating procedures of Charles River Discovery Research Services Finland Ltd. and in accordance with the national Animal Experiment Board of Finland (Eläinkoelautakunta, ELLA) authority on animal testing.
The test device is a square Plexiglass-arena (measuring 40×40×40 cm), in which the movement paths of the rats are recorded by an activity monitor (Med. Associates Inc.). Before the test period is initiated, rats are habituated to their test cage for 60 minutes. Upon completion of habituation, animals were treated with either compound or vehicle and placed back into the open field apparatus. The main test parameter measured is ambulatory distance (recorded in 5 minute segments). Overall time of measurement after receiving initial treatment was 360 minutes. Total follow up period in the study was 420 min, including 60 min of habituation.

Sequence of human D1 receptor (P21728 whole entry): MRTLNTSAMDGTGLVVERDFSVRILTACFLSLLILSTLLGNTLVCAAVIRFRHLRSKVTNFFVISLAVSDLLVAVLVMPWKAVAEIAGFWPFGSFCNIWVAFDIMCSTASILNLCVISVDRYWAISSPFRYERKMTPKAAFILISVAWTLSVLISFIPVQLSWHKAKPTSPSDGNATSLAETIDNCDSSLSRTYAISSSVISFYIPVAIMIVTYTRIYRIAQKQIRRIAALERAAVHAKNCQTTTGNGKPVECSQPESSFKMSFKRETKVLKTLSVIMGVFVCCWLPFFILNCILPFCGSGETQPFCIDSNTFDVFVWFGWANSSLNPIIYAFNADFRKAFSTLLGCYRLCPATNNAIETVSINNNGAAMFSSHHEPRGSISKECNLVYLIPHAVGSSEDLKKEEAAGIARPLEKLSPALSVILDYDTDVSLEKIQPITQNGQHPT

SMILES: CCCN1CCC[C@@H]2CC3=C(CCCC3=O)C[C@H]21 [(Ia), reference compound]
- EC50 (human D1 receptor): > 1 µM
- EC50 (human D2 receptor; HEK293/G15 cells expressing human D2 receptor, calcium flux): > 1 µM
- 5-HT2B agonist effect at concentration indicated (human 5-HT2B receptor; @30 uM, percent of control response to 1 μM 5-HT): 58%
- EC50 (human 5-HT2B receptor; CHO cells, IP1 production): > 6 µM
- plasma profile of compound (I) after oral dosing (in words) [1]: early and high peak concentrations of compound (I)

SMILES: CCCN1CCC[C@@H]2Cc3c(ccc4c3OCO4)C[C@H]21 [(Ib), reference compound]
- EC50 (human D1 receptor): > 1 µM
- Emax (human D2 receptor; normalized to 1 μM dopamine = 100%): 100%
- 5-HT2B agonism (in words) (human 5-HT2B receptor; example 3): agonist of the 5-HT2B receptor
- Emax (human 5-HT2B receptor; read-out: 5-HT2B Emax): 79%
- plasma profile of compound (I) after oral dosing (in words) [1]: early and high peak concentrations of compound (I)

SMILES: CCCN1CCC[C@@H]2Cc3c(ccc(OC(=O)C(C)(C)C)c3OC(=O)C(C)(C)C)C[C@H]21 [(Ic), reference compound]
- 5-HT2B effect at concentration indicated (no asterisk) (human 5-HT2B receptor; @10 μM): −5%@10
- plasma profile of compound (I) after oral dosing (in words) [1]: extremely low

SMILES: CCCN1CCC[C@@H]2Cc3c(ccc(O[C@@H]4O[C@H](C(=O)O)[C@@H](O)[C@H](O)[C@H]4O)c3O)C[C@H]21 [(Id-ib), (2S,3S,4S,5R,6S)-3,4,5-trihydroxy-6-(((4aR,10aR)-6-hydroxy-1-propyl-1,2,3,4,4a,5,10,10a-octahydrobenzo[g]quinolin-7-yl)oxy)tetrahydro-2H-pyran-2-carboxylic acid]
- plasma profile of compound (I) after oral dosing (in words) [1]: slower absorption rate avoiding rapid peak concentrations accompanied by a sustained exposure of compound (I) in plasma
- conversion to compound (I) in rat hepatocytes (hepatocytes from rat): time dependent conversion to compound (I)
- conversion to compound (I) in human hepatocytes (hepatocytes from human): time dependent conversion to compound (I)
- conversion to compound (I) in rat blood [2]: time dependent conversion to compound (I)
- conversion to compound (I) in human blood [3]: time dependent conversion to compound (I)

SMILES: CCCN1CCC[C@@H]2Cc3c(ccc(OS(=O)(=O)O)c3O)C[C@H]21 [(Id-iib), (4aR,10aR)-6-hydroxy-1-propyl-1,2,3,4,4a,5,10,10a-octahydrobenzo[g]quinolin-7-yl hydrogen sulfate]
- plasma profile of compound (I) after oral dosing (in words) [1]: slower absorption rate avoiding rapid peak concentrations accompanied by a sustained exposure of compound (I) in plasma
- conversion to compound (I) in rat hepatocytes (hepatocytes from rat): time dependent conversion to compound (I)
- conversion to compound (I) in human hepatocytes (hepatocytes from human): time dependent conversion to compound (I)
- conversion to compound (I) in rat blood [2]: time dependent conversion to compound (I)
- conversion to compound (I) in human blood [3]: time dependent conversion to compound (I)

SMILES: CCCN[C@H]1CCc2nc(N)sc2C1 [Pramipexole, pramipexole, reference compound]
- total distance travelled vs vehicle (male CD rats; FIG. 4, (Id-ia) p.o., apomorphine 3 mg/kg s.c., pramipexole 0.3 mg/kg s.c.): significantly increased activity
- time until locomotor effect is gone (male CD rats): 2.5 h

SMILES: CN1CCc2cccc3c2[C@H]1Cc1ccc(O)c(O)c1-3 [apomorphine, reference compound]
- time until locomotor effect is gone (male CD rats): 1.5 h
